Where two headings read alike, the source gives them in different places.
Key:
[1] = molecular target: T1, CCK receptor (brain, cerebral cortex) (Cavia porcellus, UniProt H0VZC5); test: biochemical; type: binding, Male Hartley guinea pigs; details: guinea pig cerebral cortex, ^125 I-CCK-33, 25° C., 2 hours
T1 construct: Cerebral cortex was dissected and used as a receptor source; from tissue; host or cells: guinea pig cerebral cortex membranes (male Hartley)
T1 sequence (H0VZC5 1-426): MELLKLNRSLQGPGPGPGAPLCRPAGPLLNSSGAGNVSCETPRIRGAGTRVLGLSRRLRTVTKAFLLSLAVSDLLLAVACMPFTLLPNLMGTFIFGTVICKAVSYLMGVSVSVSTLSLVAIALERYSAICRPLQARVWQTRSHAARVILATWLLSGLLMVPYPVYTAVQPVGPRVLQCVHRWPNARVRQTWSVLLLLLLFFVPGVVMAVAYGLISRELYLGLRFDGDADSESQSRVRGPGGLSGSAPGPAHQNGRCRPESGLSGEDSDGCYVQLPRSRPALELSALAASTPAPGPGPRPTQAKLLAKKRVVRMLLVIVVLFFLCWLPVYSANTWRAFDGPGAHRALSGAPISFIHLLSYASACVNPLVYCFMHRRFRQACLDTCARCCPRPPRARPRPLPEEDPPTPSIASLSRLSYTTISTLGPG
Summary of the method: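 Guinea pig cerebral cortex homogenate as receptor source, with radiolabeled CCK-33 in HEPES buffer containing MgCl2, bacitracin, EGTA and 0.4% BSA. Incubation 2 h at 25°C; bound ligand pelleted by centrifugation and gamma-counted.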

CCK receptor (pancreas) = molecular target: T2, CCK receptor (pancreas) (Rattus norvegicus, UniProt P30551); test: CCK Receptor Binding (Pancreas): inhibition of ^125 I-CCK-33 binding; design: species or system Male Sprague-Dawley rats; details: rat pancreas membranes, ^125 I-CCK-33, 37° C., 30 minutes
T2 construct: The whole pancreas was dissected free of fat tissue and was homogenized; from tissue; host or cells: rat pancreas membranes (Sprague-Dawley)
T2 sequence (P30551 1-444): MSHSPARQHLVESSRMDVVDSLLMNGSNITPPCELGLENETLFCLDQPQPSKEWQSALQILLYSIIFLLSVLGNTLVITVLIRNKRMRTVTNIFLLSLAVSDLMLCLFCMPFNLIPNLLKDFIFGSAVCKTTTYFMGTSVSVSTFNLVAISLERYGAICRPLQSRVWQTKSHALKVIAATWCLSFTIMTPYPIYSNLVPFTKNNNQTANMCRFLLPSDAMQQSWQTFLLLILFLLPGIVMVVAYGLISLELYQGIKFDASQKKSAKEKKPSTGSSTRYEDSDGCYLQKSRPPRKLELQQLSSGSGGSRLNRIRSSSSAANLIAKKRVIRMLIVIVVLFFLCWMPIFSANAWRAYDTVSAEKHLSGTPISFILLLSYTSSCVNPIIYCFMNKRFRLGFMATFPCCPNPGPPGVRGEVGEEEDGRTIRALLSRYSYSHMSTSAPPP
Summary of the method: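 Rat (male Sprague-Dawley) pancreatic membranes in 50 mM Tris HCl pH 7.7 with DTT, bacitracin, PMSF and o-phenanthroline; ^125I-Bolton Hunter-labelled CCK-33 as radioligand. Incubation 30 min at 37° C, separation by centrifugation, pellet gamma-counted; Scatchard analysis by diluting ^125I-CCK-33 with increasing CCK-33.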

[2] = molecular target: T3, Gastrin receptor (gastric glands) (Cavia porcellus, UniProt H0VZC5); test: Gastrin Receptor Binding in Guinea Pig Gastric Glands; design: species or system guinea pig (male Hartley); details: 25° C., 30 minutes
T3 construct: The washed guinea pig gastric glands prepared as above were resuspended; from tissue; host or cells: guinea pig gastric mucosal glands (male Hartley)
T3 sequence (H0VZC5 1-426): T1 sequence (H0VZC5 1-426)

[3] = IC50 ^125 I-Gastrin Gastric Glands
[4] = read-out: IC50 ^125 I-CCK Brain
[5] = ^125 I-gastrin, read-out: IC50 ^125 I-Gastrin Gastric Glands
[6] = read-out: IC50 ^125 I-CCK Pancreas

SMILES	IC50 ([1]; IC50 ^125 I-CCK Brain)	IC50 (CCK receptor (pancreas); IC50 ^125 I-CCK Pancreas)	IC50 [2, 3]	IC50 [1, 4]	IC50 [2, 5]	IC50 (CCK receptor (pancreas); [6])
CCCCCc1ccc(C(=O)N[C@H]2N=C(c3ccccc3F)c3ccccc3N(C)C2=O)cc1 [Example 228, (S)-N-(5-(2-Fluorophenyl)-2,3-dihydro-1-methyl-2-oxo-1H-1,4-benzodiazepin-3-yl)-4-pentylbenzamide]	100 µM	0.049 µM	60 µM			
CCOC(=O)CCN1C(=O)C(NC(=O)OCc2ccccc2)N=C(c2ccccc2)c2ccccc21 (stereo not drawn) [Example 229, 2,3-Dihydro-2-oxo-5-phenyl-3-(((phenylmethoxy)carbonyl)amino)-1H-1,4-benzodiazepine-1-propanoic acid ethyl ester]		1.2 µM		0.44 µM	0.26 µM	
CCOC(=O)CCN1C(=O)C(NC(=O)Nc2ccc(Cl)cc2)N=C(c2ccccc2)c2ccccc21 (stereo not drawn) [Example 230, 3-((((4-Chlorophenyl)amino)carbonyl)amino)-2,3-dihydro-2-oxo-5-phenyl-1H-1,4-benzodiazepine-1-propanoic acid ethyl ester]	0.0051 µM		0.035 µM			0.49 µM
CN1C(=O)C(NC(=O)[C@@H](Cc2ccccc2)NC(=O)OC(C)(C)C)N=C(c2ccccc2F)c2ccccc21 (stereo partly drawn) [Example 231, (2-((5-(2-Fluorophenyl)-2,3-dihydro-1-methyl-2-oxo-1H-1,4-benzodiazepin-3-yl)amino)-2-oxo-1-(phenylmethyl)ethyl)-carbamic acid 1,1-dimethylethyl ester]		0.58 µM		2.7 µM	2.9 µM	
CN1C(=O)[C@@H](NC(=O)Nc2ccc(Cl)cc2)N=C(c2ccccc2)c2ccccc21 [Example 233]	0.41 µM				0.58 µM	0.026 µM
CN1C(=O)[C@H](NC(=O)Nc2ccc(Cl)cc2)N=C(c2ccccc2)c2ccccc21 [Example 234, (R)-N-(4-Chlorophenyl)-N'-(2,3-dihydro-1-methyl-2-oxo-5-phenyl-1H-1,4-benzodiazepin-3-yl)-Urea]	0.0055 µM				0.012 µM	1.1 µM
CN1CCN(C(=O)CN2C(=O)C(NC(=O)OCc3ccccc3)N=C(c3ccccc3)c3ccccc32)CC1 (stereo not drawn) [Example 235, (2,3-Dihydro-1-(2-(4-methyl-1-piperazinyl)-2-oxoethyl)-2-oxo-5-phenyl-1H-1,4-benzodiazepin-3-yl)-carbamic acid phenylmethyl ester]		29 µM		1.7 µM	1.4 µM	
O=C(Nc1ccc(Cl)cc1)NC1N=C(c2ccccc2)c2ccccc2N(CC(=O)N2CCCC2)C1=O (stereo not drawn) [Example 236, 1-((3-((((4-Chlorophenyl)amino)carbonyl)amino)-2,3-dihydro-2-oxo-5-phenyl-1H-1,4-benzodiazepin-1-yl)acetyl)pyrrolidine]				0.00028 µM	0.0005 µM	0.52 µM
CN1CCN(C(=O)CN2C(=O)C(NC(=O)Nc3ccc(Cl)cc3)N=C(c3ccccc3)c3ccccc32)CC1 (stereo not drawn) [Example 237, 1-((3-((((4-Chlorophenyl)amino)carbonyl)amino)-2,3-dihydro-2-oxo-5-phenyl-1H-1,4-benzodiazepin-1-yl)acetyl)-4-methylpiperazine]				0.008 µM	0.0026 µM	1.2 µM
CN1C(=O)C(NC(=O)c2ccsc2)N=C(c2ccccc2F)c2ccccc21 (stereo not drawn) [Example 238, N-(5-(2-Fluorophenyl)-2,3-dihydro-1-methyl-2-oxo-1H-1,4-benzodiazepin-3-yl)-3-thiophenecarboxamide]	26 µM		11 µM			0.028 µM
CCOC(=O)CN1C(=O)C(NC(=O)Cc2ccc(Cl)cc2)N=C(c2ccccc2)c2ccccc21 (stereo not drawn) [Example 239, 3-(((4-Chlorophenyl)acetyl)amino)-2,3-dihydro-2-oxo-5-phenyl-1H-1,4-benzodiazepine-1-acetic acid ethyl ester]		1.7 µM		0.038 µM	0.0045 µM	
O=C(Cc1ccc(Cl)cc1)NC1N=C(c2ccccc2)c2ccccc2NC1=O (stereo not drawn) [Example 240, 4-Chloro-N-(2,3-dihydro-2-oxo-5-phenyl-1,4-benzodiazepin-3-yl)-benzeneacetamide]		1.3 µM		2.9 µM	7 µM	
CCOC(=O)C(C)N1C(=O)C(NC(=O)OCc2ccccc2)N=C(c2ccccc2)c2ccccc21 (stereo not drawn) [Example 241, 2,3-Dihydro-alpha-methyl-2-oxo-5-phenyl-3-((phenylmethoxy)carbonyl)amino-1H-1,4-benzodiazepine-1-acetic acid ethyl ester]		0.93 µM		1.4 µM	0.95 µM	
CCOC(=O)C(C)N1C(=O)C(NC(=O)OCc2ccccc2)N=C(c2ccccc2)c2ccccc21 (stereo not drawn) [Example 242]		0.9 µM		2.3 µM	0.87 µM	
CC(C(=O)O)N1C(=O)C(NC(=O)OCc2ccccc2)N=C(c2ccccc2)c2ccccc21 (stereo not drawn) [Example 243, 2,3-Dihydro-alpha-methyl-2-oxo-5-phenyl-3-((phenylmethoxy)carbonyl)amino-1H-1,4-benzodiazepine-1-acetic acid]		0.68 µM		2.8 µM	3.6 µM	
CCN(CC)C(=O)C(C)N1C(=O)C(NC(=O)OCc2ccccc2)N=C(c2ccccc2)c2ccccc21 (stereo not drawn) [Example 244, (1-(2-(Diethylamino)-1-methyl-2-oxoethyl)-2,3-dihydro-2-oxo-5-phenyl-1H-1,4-benzodiazepin-3-yl)-carbamic acid phenylmethyl ester]		0.95 µM		0.74 µM	0.5 µM	
CN1C(=O)C(NC(=O)Oc2ccc([N+](=O)[O-])cc2)N=C(c2ccccc2F)c2ccccc21 (stereo not drawn) [Example 245, (5-(2-Fluorophenyl)-2,3-dihydro-1-methyl-2-oxo-1H-1,4-benzodiazepin-3-yl)-carbamic acid-4-nitrophenyl ester]	92 µM	7.2 µM	12 µM			
COc1cccc(NC(=O)NC2N=C(c3ccccc3F)c3ccccc3N(C)C2=O)c1 (stereo not drawn) [Example 246, N-(5-(2-Fluorophenyl)-2,3-dihydro-1-methyl-2-oxo-1H-1,4-benzodiazepin-3-yl)-N'-(3-methoxyphenyl)-urea]		0.0019 µM		0.002 µM	0.0024 µM	
COc1cccc(NC(=O)NC2N=C(c3ccccc3)c3ccccc3N(C)C2=O)c1 (stereo not drawn) [Example 247, N-(2,3-Dihydro-1-methyl-2-oxo-5-phenyl-1H-1,4-benzodiazepin-3-yl)-N'-(3-methoxyphenyl)-urea]	0.003 µM				0.0016 µM	0.0062 µM
Cc1ccc(S(=O)(=O)NC(=O)NC2N=C(c3ccccc3)c3ccccc3N(C)C2=O)cc1 (stereo not drawn) [Example 248, N-(((2,3-Dihydro-1-methyl-2-oxo-5-phenyl-1H-1,4-benzodiazepin-3-yl)amino)carbonyl)-4-methylbenzenesulfonamide]		20 µM		5.3 µM	2.2 µM	
CN1C(=O)C(NC(=O)Nc2ccccc2)N=C(c2ccccc2)c2ccccc21 (stereo not drawn) [Example 250, N-(2,3-Dihydro-1-methyl-2-oxo-5-phenyl-1H-1,4-benzodiazepin-3-yl)-N'-phenylurea]				0.032 µM	0.009 µM	0.0083 µM
CN1C(=O)C(NC(=O)NCc2ccccc2)N=C(c2ccccc2)c2ccccc21 (stereo not drawn) [Example 251, N-(2,3-Dihydro-1-methyl-2-oxo-5-phenyl-1H-1,4-benzodiazepin-3-yl)-N'-phenylmethylurea]				0.86 µM	0.42 µM	0.49 µM
Cc1ccc(NC(=O)NC2N=C(c3ccccc3)c3ccccc3N(C)C2=O)cc1 (stereo not drawn) [Example 252, N-(2,3-Dihydro-1-methyl-2-oxo-5-phenyl-1H-1,4-benzodiazepin-3-yl)-N'-(4-methylphenyl)-urea]	0.006 µM		0.0035 µM			0.057 µM
